Source: ChEMBL document CHEMBL4002562, “Terminal functionalized thiourea-containing dipeptides as multidrug-resistance reversers that target 20S proteasome and cell proliferation” (Eur J Med Chem, 2017)

What was measured:
[1] = molecular target: T1, Proteasome Macropain subunit MB1 (Homo sapiens, UniProt P28074); test: Inhibition of chymotrypsin-like activity of human 20S proteasome using Suc-LLVY-AMC as substrate by fluorometric method
T1 sequence (P28074 whole entry): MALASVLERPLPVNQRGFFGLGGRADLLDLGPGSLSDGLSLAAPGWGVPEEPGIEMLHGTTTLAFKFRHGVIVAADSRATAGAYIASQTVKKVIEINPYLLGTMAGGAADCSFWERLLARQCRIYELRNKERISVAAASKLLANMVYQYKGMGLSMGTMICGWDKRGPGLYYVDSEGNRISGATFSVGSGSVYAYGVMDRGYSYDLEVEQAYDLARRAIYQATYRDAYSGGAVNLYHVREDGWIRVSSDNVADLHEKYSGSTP

HepG2 [2] = test: Resistant factor, ratio of IC50 for human doxorubicin-resistant HepG2 cells to IC50 for human HepG2 cells; format: functional
NCI-H460 [3] = test: Resistant factor, ratio of IC50 for human doxorubicin-resistant NCI-H460 cells to IC50 for human NCI-H460 cells; format: functional
NCI-H460 [4] = test: cells; details: Homo sapiens, NCI-H460, 48 h
NCI-H460 [5] = test: Cytotoxicity against human NCI-H460 cells after 48 hrs by MTT assay; details: NCI-H460, 48 h
L02 = test: Cytotoxicity against human HL-7702 cells after 48 hrs by MTT assay; format: cell-based; details: L02, 48 h
HepG2 [6] = test: cells; details: Homo sapiens, HepG2, 48 h
Description: Cytotoxicity against human HepG2 cells after 48 hrs by MTT assay

HepG2 [7] = test: Cytotoxicity against human doxorubicin-resistant HepG2 cells after 48 hrs by MTT assay; format: functional, cell-based; details: HepG2, 48 h
[8] = molecular target: Proteasome Macropain subunit (Homo sapiens, UniProt P49721); test: Inhibition of trypsin-like activity of human 20S proteasome using Bz-VGR-AMC as substrate by fluorometric method
Proteasome Macropain subunit, sequence (P49721 whole entry): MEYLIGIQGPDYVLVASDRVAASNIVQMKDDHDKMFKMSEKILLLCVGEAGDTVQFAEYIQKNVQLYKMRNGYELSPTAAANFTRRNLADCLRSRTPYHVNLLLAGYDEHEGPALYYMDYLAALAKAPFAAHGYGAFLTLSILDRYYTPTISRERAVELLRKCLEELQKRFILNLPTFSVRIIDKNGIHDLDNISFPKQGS

NCI-H460 [9] = test: Induction of apoptosis in doxorubicin-resistant human NCI-H460 cells assessed as viable cells at 4 uM after 24 hrs by Annexin V-PE/7-AAD staining-based flow cytometric analysis (reference value: 95.2%); format: functional; details: NCI-H460, 24 h, read-out: Activity
NCI-H460 [10] = test: Induction of apoptosis in human NCI-H460 cells assessed as late apoptotic/necrotic cells at 4 uM after 24 hrs by Annexin V-PE/7-AAD staining-based flow cytometric analysis (reference value: 5.73%); format: functional
NCI-H460 [11] = test: Induction of apoptosis in human NCI-H460 cells assessed as late apoptotic/necrotic cells at 4 uM after 24 hrs in presence of p-gp inhibitor LY335979 by Annexin V-PE/7-AAD staining-based flow cytometric analysis (reference value: 5.73%); format: functional
NCI-H460 [12] = test: Induction of apoptosis in doxorubicin-resistant human NCI-H460 cells assessed as damaged cells at 4 uM after 24 hrs in presence of p-gp inhibitor LY335979 by Annexin V-PE/7-AAD staining-based flow cytometric analysis (reference value: 0.493%); format: functional
NCI-H460 [13] = test: Induction of apoptosis in human NCI-H460 cells assessed as viable cells at 4 uM after 24 hrs by Annexin V-PE/7-AAD staining-based flow cytometric analysis (reference value: 83%); format: functional; details: NCI-H460, 24 h, read-out: Activity
NCI-H460 [14] = test: Induction of apoptosis in doxorubicin-resistant human NCI-H460 cells assessed as viable cells at 4 uM after 24 hrs in presence of p-gp inhibitor LY335979 by Annexin V-PE/7-AAD staining-based flow cytometric analysis (reference value: 95.2%); format: functional; details: NCI-H460, 24 h, read-out: Activity
NCI-H460 [15] = test: Induction of apoptosis in doxorubicin-resistant human NCI-H460 cells assessed as early apoptotic cells at 4 uM after 24 hrs in presence of p-gp inhibitor LY335979 by Annexin V-PE/7-AAD staining-based flow cytometric analysis (reference value: 1.40%); format: functional
NCI-H460 [16] = test: Induction of apoptosis in human NCI-H460 cells assessed as early apoptotic cells at 4 uM after 24 hrs by Annexin V-PE/7-AAD staining-based flow cytometric analysis (reference value: 1.33%); format: functional
NCI-H460 [17] = test: Induction of apoptosis in human NCI-H460 cells assessed as early apoptotic cells at 4 uM after 24 hrs in presence of p-gp inhibitor LY335979 by Annexin V-PE/7-AAD staining-based flow cytometric analysis (reference value: 1.33%); format: functional
NCI-H460 [18] = test: Induction of apoptosis in human NCI-H460 cells assessed as damaged cells at 4 uM after 24 hrs in presence of p-gp inhibitor LY335979 by Annexin V-PE/7-AAD staining-based flow cytometric analysis (reference value: 9.98%); format: functional
NCI-H460 [19] = test: Induction of apoptosis in doxorubicin-resistant human NCI-H460 cells assessed as damaged cells at 4 uM after 24 hrs by Annexin V-PE/7-AAD staining-based flow cytometric analysis (reference value: 0.493%); format: functional
NCI-H460 [20] = test: Induction of apoptosis in human NCI-H460 cells assessed as damaged cells at 4 uM after 24 hrs by Annexin V-PE/7-AAD staining-based flow cytometric analysis (reference value: 9.98%); format: functional
NCI-H460 [21] = test: Induction of apoptosis in doxorubicin-resistant human NCI-H460 cells assessed as early apoptotic cells at 4 uM after 24 hrs by Annexin V-PE/7-AAD staining-based flow cytometric analysis (reference value: 1.40%); format: functional
NCI-H460 [22] = test: Induction of apoptosis in human NCI-H460 cells assessed as viable cells at 4 uM after 24 hrs in presence of p-gp inhibitor LY335979 by Annexin V-PE/7-AAD staining-based flow cytometric analysis (reference value: 83%); format: functional; details: NCI-H460, 24 h, read-out: Activity
NCI-H460 [23] = test: Induction of apoptosis in doxorubicin-resistant human NCI-H460 cells assessed as late apoptotic/necrotic cells at 4 uM after 24 hrs in presence of p-gp inhibitor LY335979 by Annexin V-PE/7-AAD staining-based flow cytometric analysis (reference value: 2.87%); format: functional
NCI-H460 [24] = test: Induction of apoptosis in doxorubicin-resistant human NCI-H460 cells assessed as late apoptotic/necrotic cells at 4 uM after 24 hrs by Annexin V-PE/7-AAD staining-based flow cytometric analysis (reference value: 2.87%); format: functional

| Structure (SMILES) | IC50 [1] | IC50 (NCI-H460 [4]) | IC50 (HepG2 [6]) | Ratio IC50 (HepG2 [2]) | Ratio IC50 (NCI-H460 [3]) | IC50 (NCI-H460 [5]) | IC50 (L02) | IC50 (HepG2 [7]) | also measured |
| --- | --- | --- | --- | --- | --- | --- | --- | --- | --- |
| CC[C@H](C)[C@H](/N=C(/Nc1cccc([N+](=O)[O-])c1)SC)C(=O)N[C@H](Cc1ccccc1)C(=O)Nc1ccc(C)c(C)c1 | > 50 µM |  |  |  |  |  |  |  |  |
| CC[C@H](C)[C@H](NC(=S)Nc1ccc(C(F)(F)F)cc1)C(=O)N[C@H](Cc1ccccc1)C(=O)Nc1cccc(Br)c1 | 0.022 µM | 11.2 µM | 18.6 µM | 1.47 | 1.58 | 7.13 µM | > 50 µM | 27.4 µM |  |
| CC[C@H](C)[C@H](NC(=S)Nc1cccc([N+](=O)[O-])c1)C(=O)N[C@H](Cc1ccccc1)C(=O)Nc1cccc(OC)c1 | 22.3 µM |  |  |  |  |  |  |  |  |
| CC[C@H](C)[C@H](NC(=S)Nc1cccc([N+](=O)[O-])c1)C(=O)N[C@H](Cc1ccccc1)C(=O)Nc1ccc(OC)cc1 | 29 µM |  |  |  |  |  |  |  |  |
| CC[C@H](C)[C@H](NC(=S)Nc1cccc([N+](=O)[O-])c1)C(=O)N[C@H](Cc1ccccc1)C(=O)Nc1cccc(F)c1 | 3.57 µM | 28.6 µM | 18 µM | 2.04 | 2.33 | 12.3 µM | > 50 µM | 36.8 µM |  |
| CC[C@H](C)[C@H](NC(=S)Nc1cccc([N+](=O)[O-])c1)C(=O)N[C@H](Cc1ccccc1)C(=O)Nc1ccc(Cl)c(Cl)c1 | 1.36 µM | 32.3 µM | 13.3 µM | 2.82 | 2.18 | 14.8 µM | > 50 µM | 37.4 µM |  |
| CC[C@H](C)[C@H](NC(=S)Nc1cccc(C(F)(F)F)c1)C(=O)N[C@H](Cc1ccccc1)C(=O)Nc1cccc(C(F)(F)F)c1 | 19.6 µM |  |  |  |  |  |  |  |  |
| CC[C@H](C)[C@H](/N=C(/Nc1cccc(C(F)(F)F)c1)SC)C(=O)N[C@H](Cc1ccccc1)C(=O)Nc1cccc(C(F)(F)F)c1 | 8.83 µM | > 50 µM | 19.3 µM | 2.55 |  | 20.3 µM | > 50 µM | 49.2 µM | IC50 [8]: Not Active |
| COc1cccc2c1C(=O)c1c(O)c3c(c(O)c1C2=O)C[C@@](O)(C(=O)CO)C[C@@H]3O[C@H]1C[C@H](N)[C@H](O)[C@H](C)O1 [DOXORUBICIN] |  |  | 6.91 µM |  |  |  | 12.2 µM | > 50 µM |  |
| CC[C@H](C)[C@H](NC(=S)Nc1ccc(Br)cc1)C(=O)N[C@H](Cc1ccccc1)C(=O)Nc1ccc(C)c(Cl)c1 | > 50 µM |  |  |  |  |  |  |  |  |
| CC[C@H](C)[C@H](NC(=S)Nc1cccc([N+](=O)[O-])c1)C(=O)N[C@H](Cc1ccccc1)C(=O)Nc1ccc(Br)cc1 | 2.71 µM | 35.2 µM | 17.4 µM | 2.76 | 2.18 | 16.2 µM | > 50 µM | 48.2 µM |  |
| CC[C@H](C)[C@H](NC(=S)Nc1cccc([N+](=O)[O-])c1)C(=O)N[C@H](Cc1ccccc1)C(=O)Nc1cccc(Cl)c1 | 5.84 µM | 31.7 µM | 20.7 µM |  | 2.32 | 13.6 µM | > 50 µM | > 50 µM |  |

Continued, in another order:

| IC50 [1] | IC50 (NCI-H460 [4]) | IC50 (HepG2 [6]) | Structure (SMILES) | Ratio IC50 (HepG2 [2]) | Ratio IC50 (NCI-H460 [3]) | IC50 (NCI-H460 [5]) | IC50 (L02) | IC50 (HepG2 [7]) | also measured |
| --- | --- | --- | --- | --- | --- | --- | --- | --- | --- |
| 0.017 µM | 15.5 µM | 12.1 µM | CC[C@H](C)[C@H](NC(=S)Nc1cccc(C(F)(F)F)c1)C(=O)N[C@H](Cc1ccccc1)C(=O)Nc1ccc(Cl)c(Cl)c1 | 2.44 | 2.52 | 6.14 µM | > 50 µM | 29.6 µM | IC50 [8]: Not Active |
| > 50 µM |  |  | CC[C@H](C)[C@H](NC(=S)Nc1cccc([N+](=O)[O-])c1)C(=O)N[C@H](Cc1ccccc1)C(=O)Nc1ccc(C)c(Cl)c1 |  |  |  |  |  |  |
| 1.97 µM | 42.4 µM | 17.5 µM | CC[C@H](C)[C@H](NC(=S)Nc1cccc([N+](=O)[O-])c1)C(=O)N[C@H](Cc1ccccc1)C(=O)Nc1ccc(F)cc1 | 2.78 | 2.09 | 20.2 µM | > 50 µM | 48.5 µM |  |
| 22.2 µM |  |  | CC[C@H](C)[C@H](/N=C(/Nc1cccc(C(F)(F)F)c1)SC)C(=O)N[C@H](Cc1ccccc1)C(=O)Nc1ccc(Cl)c(Cl)c1 |  |  |  |  |  |  |
| 0.0086 µM | 6.74 µM | 4.8 µM | CC[C@H](C)[C@H](NC(=S)Nc1cccc([N+](=O)[O-])c1)C(=O)N[C@H](Cc1ccccc1)C(=O)Nc1cccc(C(F)(F)F)c1 | 2.12 | 3.96 | 1.7 µM | > 50 µM | 10.2 µM | viability at 4 µM (NCI-H460 [9]): 80.8%; Activity (NCI-H460 [10]): 7.76%; Activity (NCI-H460 [11]): 24.2%; Activity (NCI-H460 [12]): 5.72%; viability at 4 µM (NCI-H460 [13]): 74.2%; viability at 4 µM (NCI-H460 [14]): 32.5%; IC50 [8]: Not Active; Activity (NCI-H460 [15]): 31.9%; Activity (NCI-H460 [16]): 13.3%; Activity (NCI-H460 [17]): 4.86%; Activity (NCI-H460 [18]): 13.9%; Activity (NCI-H460 [19]): 1.9%; Activity (NCI-H460 [20]): 4.72%; Activity (NCI-H460 [21]): 11.4%; viability at 4 µM (NCI-H460 [22]): 57%; Activity (NCI-H460 [23]): 29.9%; Activity (NCI-H460 [24]): 5.96% |
| > 50 µM |  |  | CC[C@H](C)[C@H](NC(=S)Nc1cccc([N+](=O)[O-])c1)C(=O)N[C@H](Cc1ccccc1)C(=O)Nc1ccc(C)c(C)c1 |  |  |  |  |  |  |
